A word on the viability: it is a read-out of living cells in per cent, often relative to untreated cells.

Structures are written as SMILES. Where a SMILES comes first, the peptide text is derived from it. [ ]: non-standard residue; d: D form. The star is where a group is joined. NHCH2CH2OH = OCCN*; For = O=C*

Data set [1] is described as follows: H+/Na+ transport assay of bead-derived peptides (one-point).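 Also: relative to parent gramicidin A activity set to 1.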 The conditions noted are these: bead-derived peptide solution, EYPC/EYPG LUVs. It is filed as biochemical. More on the design: key: relative activity; mean of two control wells = 1.00. The gist of the method:
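Pyranine (1.0 mM)-loaded LUVs containing egg yolk phosphatidylglycerol were prepared by film hydration, sonication and extrusion, then mixed with diluted bead-derived peptide in 96-well format and vortexed 30 min at room temperature. Fluorescence was normalized between untreated LUVs (0%) and Triton X-100 lysis (100%).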

For data set [2], the system named is Streptococcus pyogenes SSI-9. Kind of data set: Antibacterial activity assay of bead-derived peptides (three concentrations). It is filed as cell-based. More on the design: key: +++: inhibition by the 640-fold diluted peptide solution; ++: inhibition by the 160-fold diluted solution; +: inhibition by the 40-fold diluted solution; -: no inhibition. The conditions noted are these: S. pyogenes, bead-derived peptide solution, three concentrations. A digest of the protocol: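 Bead-derived library peptide stocks in DMSO were tested undiluted and after 4- and 16-fold DMSO dilution against S. pyogenes SSI-9 (2 × 10^5 CFU/well) in cation-adjusted Mueller Hinton Broth with 5% laked horse blood. After 18 h at 37 °C, wells were scored for precipitation of grown cells.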

The conditions of data set [3]: cell viability/%. The gist of the method: (§1)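 First, library peptide stocks are diluted 250-fold in RPMI1640 with 10% heat-inactivated FBS. Next, they are mixed with P388 cells to give 1 × 10^4 cells/mL and incubated 92 h at 37 °C, 5% CO2. Finally, viability (%) is scored by WST-1 absorbance at 415 nm.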
Data set [4] relates to P388 mouse leukemia cells. The settings on record: 92 h. The gist of the method: as §1

For the compound `CC(C)C[C@@H](NC(=O)[C@H](Cc1c[nH]c2ccccc12)NC(=O)[C@H](NC(=O)[C@H](Cc1c[nH]c2ccccc12)NC(=O)[C@H](NC(=O)[C@H](Cc1c[nH]c2ccccc12)NC(=O)[C@H](NC(=O)[C@@H](NC(=O)[C@H](NC(=O)[C@H](C)NC(=O)[C@H](NC(=O)[C@H](C)NC(=O)CNC(=O)[C@@H](NC=O)C(C)C)C(C)C)C(C)C)C(C)C)[C@H](C)O)C(C)C)C(C)C)C(=O)N[C@@H](Cc1c[nH]c2ccccc12)C(=O)NCCO` [compound 5542] (For-VGA[dV]A[dV]V[dT]W[dV]W[dV]W[dL]W-NHCH2CH2OH), the “H+/Na+ transport activity normalized against the value of 1 (1.00)” value (from here on “H+/Na+ transport activity normalized”) in data set [1] came to 1.17. In data set [2], the antibacterial activity entry is on record as “-”. The same compound came in with a viability in data set [3] of 100%.
As to `CC(C)C[C@@H](NC(=O)[C@H](C)NC(=O)CNC(=O)[C@@H](NC=O)C(C)C)C(=O)N[C@@H](C)C(=O)N[C@@H](C(=O)N[C@H](C(=O)N[C@@H](C(=O)N[C@@H](Cc1c[nH]c2ccccc12)C(=O)N[C@H](CC(C)C)C(=O)N[C@@H](Cc1c[nH]c2ccccc12)C(=O)N[C@H](CC(C)C)C(=O)N[C@@H](Cc1c[nH]c2ccccc12)C(=O)N[C@@H](C(=O)N[C@@H](Cc1c[nH]c2ccccc12)C(=O)NCCO)[C@H](C)O)C(C)C)C(C)C)[C@H](C)O` [compound 6873] (For-VGA[dL]A[dT]V[dV]W[dL]W[dL]W[dT]W-NHCH2CH2OH), the “H+/Na+ transport activity normalized” value in data set [1] stood at 1.15. Also, in data set [2], the antibacterial activity result is given as “-”. In addition, the viability in data set [3] was found to be 100%.
For `CC(C)C[C@@H](NC(=O)[C@H](C)NC(=O)CNC(=O)[C@@H](NC=O)C(C)C)C(=O)N[C@@H](C)C(=O)N[C@@H](C(=O)N[C@H](C(=O)N[C@H](CC(C)C)C(=O)N[C@@H](Cc1c[nH]c2ccccc12)C(=O)N[C@H](CC(C)C)C(=O)N[C@@H](Cc1c[nH]c2ccccc12)C(=O)N[C@@H](C(=O)N[C@@H](Cc1c[nH]c2ccccc12)C(=O)N[C@@H](C(=O)N[C@@H](Cc1c[nH]c2ccccc12)C(=O)NCCO)[C@H](C)O)[C@H](C)O)C(C)C)C(C)C` [compound 4328] (For-VGA[dL]A[dV]V[dL]W[dL]W[dT]W[dT]W-NHCH2CH2OH), in that order: 1.13, “+” and 100%.
For `CC(C)C[C@@H](NC(=O)[C@H](C)NC(=O)CNC(=O)[C@@H](NC=O)C(C)C)C(=O)N[C@@H](C)C(=O)N[C@H](CC(C)C)C(=O)N[C@H](C(=O)N[C@H](CC(C)C)C(=O)N[C@@H](Cc1c[nH]c2ccccc12)C(=O)N[C@H](CC(C)C)C(=O)N[C@@H](Cc1c[nH]c2ccccc12)C(=O)N[C@H](CC(C)C)C(=O)N[C@@H](Cc1c[nH]c2ccccc12)C(=O)N[C@@H](C(=O)N[C@@H](Cc1c[nH]c2ccccc12)C(=O)NCCO)[C@H](C)O)C(C)C` [compound 5006] (For-VGA[dL]A[dL]V[dL]W[dL]W[dL]W[dT]W-NHCH2CH2OH), in that order: 1.12, “-” and 100%.
On the same counts, the results for `CC(C)C[C@@H](NC(=O)[C@H](C)NC(=O)CNC(=O)[C@@H](NC=O)C(C)C)C(=O)N[C@@H](C)C(=O)N[C@H](CC(C)C)C(=O)N[C@H](C(=O)N[C@@H](C(=O)N[C@@H](Cc1c[nH]c2ccccc12)C(=O)N[C@@H](C(=O)N[C@@H](Cc1c[nH]c2ccccc12)C(=O)N[C@@H](C(=O)N[C@@H](Cc1c[nH]c2ccccc12)C(=O)N[C@@H](C(=O)N[C@@H](Cc1c[nH]c2ccccc12)C(=O)NCCO)C(C)C)C(C)C)C(C)C)[C@H](C)O)C(C)C` [compound 10609] (For-VGA[dL]A[dL]V[dT]W[dV]W[dV]W[dV]W-NHCH2CH2OH) are 1.15, “-” and 79.4%.
`CNC(=O)C[C@@H](NC(=O)[C@@H](NC(=O)[C@H](NC(=O)[C@H](C)NC(=O)[C@@H](CC(C)C)NC(=O)[C@H](C)NC(=O)CNC(=O)[C@@H](NC=O)C(C)C)C(C)C)C(C)C)C(=O)N[C@@H](Cc1c[nH]c2ccccc12)C(=O)N[C@H](CC(C)C)C(=O)N[C@@H](Cc1c[nH]c2ccccc12)C(=O)N[C@H](CC(C)C)C(=O)N[C@@H](Cc1c[nH]c2ccccc12)C(=O)N[C@H](CC(C)C)C(=O)N[C@@H](Cc1c[nH]c2ccccc12)C(=O)NCCO` [compound 4143] (For-VGA[dL]A[dV]V[dD](NHMe)W[dL]W[dL]W[dL]W-NHCH2CH2OH): the “H+/Na+ transport activity normalized” value in data set [1] is listed as 1.22. The antibacterial activity result in data set [2] is listed as “-”. For the same compound, the viability in data set [3] was 100%.
For `CC(C)C[C@@H](NC(=O)[C@H](C)NC(=O)CNC(=O)[C@@H](NC=O)C(C)C)C(=O)N[C@@H](C)C(=O)N[C@@H](C(=O)N[C@H](C(=O)N[C@@H](C(=O)N[C@@H](Cc1c[nH]c2ccccc12)C(=O)N[C@H](CC(C)C)C(=O)N[C@@H](Cc1c[nH]c2ccccc12)C(=O)N[C@H](CC(C)C)C(=O)N[C@@H](Cc1c[nH]c2ccccc12)C(=O)N[C@H](CC(C)C)C(=O)N[C@@H](Cc1c[nH]c2ccccc12)C(=O)NCCO)C(C)C)C(C)C)[C@H](C)O` [compound 9098] (For-VGA[dL]A[dT]V[dV]W[dL]W[dL]W[dL]W-NHCH2CH2OH), in that order: 1.13, “-” and 51%.
On the same counts, the results for `CC(C)C[C@@H](NC(=O)[C@H](C)NC(=O)[C@H](NC(=O)[C@H](C)NC(=O)CNC(=O)[C@@H](NC=O)C(C)C)C(C)C)C(=O)N[C@H](C(=O)N[C@@H](C(=O)N[C@@H](Cc1c[nH]c2ccccc12)C(=O)N[C@H](CC(C)C)C(=O)N[C@@H](Cc1c[nH]c2ccccc12)C(=O)N[C@@H](C(=O)N[C@@H](Cc1c[nH]c2ccccc12)C(=O)N[C@H](CC(C)C)C(=O)N[C@@H](Cc1c[nH]c2ccccc12)C(=O)NCCO)[C@H](C)O)C(C)C)C(C)C` [compound 9177] (For-VGA[dV]A[dL]V[dV]W[dL]W[dT]W[dL]W-NHCH2CH2OH) are 1.05, “-” and 61.7%.
For `CC(C)C[C@@H](NC(=O)[C@H](C)NC(=O)[C@H](NC(=O)[C@H](C)NC(=O)CNC(=O)[C@@H](NC=O)C(C)C)C(C)C)C(=O)N[C@H](C(=O)N[C@@H](C(=O)N[C@@H](Cc1c[nH]c2ccccc12)C(=O)N[C@H](CC(C)C)C(=O)N[C@@H](Cc1c[nH]c2ccccc12)C(=O)N[C@@H](C(=O)N[C@@H](Cc1c[nH]c2ccccc12)C(=O)N[C@@H](C(=O)N[C@@H](Cc1c[nH]c2ccccc12)C(=O)NCCO)C(C)C)[C@H](C)O)C(C)C)C(C)C` [compound 8473] (For-VGA[dV]A[dL]V[dV]W[dL]W[dT]W[dV]W-NHCH2CH2OH), in that order: 1.01, “-” and 53.6%.
`CNC(=O)C[C@@H](NC(=O)[C@H](C)NC(=O)[C@H](NC(=O)[C@H](C)NC(=O)CNC(=O)[C@@H](NC=O)C(C)C)C(C)C)C(=O)N[C@H](C(=O)N[C@@H](C(=O)N[C@@H](Cc1c[nH]c2ccccc12)C(=O)N[C@@H](C(=O)N[C@@H](Cc1c[nH]c2ccccc12)C(=O)N[C@H](CC(C)C)C(=O)N[C@@H](Cc1c[nH]c2ccccc12)C(=O)N[C@H](CC(C)C)C(=O)N[C@@H](Cc1c[nH]c2ccccc12)C(=O)NCCO)C(C)C)C(C)C)C(C)C` [compound 5211] (For-VGA[dV]A[dD](NHMe)V[dV]W[dV]W[dL]W[dL]W-NHCH2CH2OH): in data set [1], the “H+/Na+ transport activity normalized” value is reported as 1.05. Also, the antibacterial activity result in data set [2] is recorded as “-”. In addition, the viability in data set [3] was 100%.
Consider `CC(C)C[C@@H](NC(=O)[C@H](C)NC(=O)[C@H](NC(=O)[C@H](C)NC(=O)CNC(=O)[C@@H](NC=O)C(C)C)[C@H](C)O)C(=O)N[C@H](C(=O)N[C@H](CC(C)C)C(=O)N[C@@H](Cc1c[nH]c2ccccc12)C(=O)N[C@H](CC(C)C)C(=O)N[C@@H](Cc1c[nH]c2ccccc12)C(=O)N[C@H](CC(C)C)C(=O)N[C@@H](Cc1c[nH]c2ccccc12)C(=O)N[C@H](CC(C)C)C(=O)N[C@@H](Cc1c[nH]c2ccccc12)C(=O)NCCO)C(C)C` [compound 10497] (For-VGA[dT]A[dL]V[dL]W[dL]W[dL]W[dL]W-NHCH2CH2OH), for which the “H+/Na+ transport activity normalized” value in data set [1] was 1.24. The antibacterial activity result in data set [2] is “-”. Also, the cell viability/% in data set [4] is on record as 100.0%.
For `CC(C)C[C@@H](NC(=O)[C@H](Cc1c[nH]c2ccccc12)NC(=O)[C@H](NC(=O)[C@H](Cc1c[nH]c2ccccc12)NC(=O)[C@H](NC(=O)[C@H](Cc1c[nH]c2ccccc12)NC(=O)[C@@H](CC(C)C)NC(=O)[C@@H](NC(=O)[C@H](NC(=O)[C@H](C)NC(=O)[C@H](NC(=O)[C@H](C)NC(=O)CNC(=O)[C@@H](NC=O)C(C)C)C(C)C)C(C)C)C(C)C)C(C)C)C(C)C)C(=O)N[C@@H](Cc1c[nH]c2ccccc12)C(=O)NCCO` [compound 3111] (For-VGA[dV]A[dV]V[dL]W[dV]W[dV]W[dL]W-NHCH2CH2OH), in that order: 1.12, “-” and 8.2%.

Values taken from article PMC7531004, “Discovery of gramicidin A analogues with altered activities by multidimensional screening of a one-bead-one-compound library” (Nature Communications, 2020).
